Data set [1] has as its system salmon lice. In words: Toxicity to salmon lice, contact action test in sea water beakers. Particulars: after 24 hours; lowest concentration of 5 μg/l in sea water, 10° C.; adult salmon lice. Format: in vivo, salmon louse. As to the method:
Biological Examples 1. Toxicity to Salmon Lice (In Vitro Test) a) Collecting and Cultivating the Salmon Lice
Adult and pre-adult stages of the salmon louse are gently removed with broad forceps from naturally infected Atlantic salmon which have been kept in fish farms, separated according to stage and sex, and kept in sea water tanks at 10° C. and under continuous aeration. The sea water used for cultivating the lice comes from the fish farm from which the infected salmon have been taken. The tests themselves are carried out over 48 hours after collecting the lice.
b) In Vivo Test for Determining the Contact Action of the Control Agent
Into each of three test sets of three 500 ml-glass beakers, filled with sea water (salinity […], temperature 10° C.) containing 5, 500 and 5000 μg/l of the active substance, respectively, 5 female and 5 male adults of salmon lice are added. The beaker are then transferred to an incubator and held at 10° C. for 48 hours in the dark. Live survival of the salmon lice is determined at 1, 24 and 48 hours from the start of the exposure. All lice are examined and recorded as alive, moribund or dead.

Data set [2] relates to salmon lice. In words: Toxicity against salmon lice (in vivo test) on naturally infected Atlantic salmon, bath treatment. Particulars: long lasting tests on salmon; one single treatment at 0.1 ppm. As to the method:
2. Toxicity Against Salmon Lice (In Vivo Test)
Five naturally infected Atlantic salmon are taken from the cage and transferred to well aerated sea water tanks. They remain there for 48 hours for acclimatization, and feed is withheld for 24 hours before the addition of test compound. A group of 5 salmon is treated at a concentration of 1.0 ppm of test compound, and a second group of 5 salmon is treated at a concentration of 0.1 ppm. The fish are kept for 24 hours in fresh sea water (without test compound) and a count is then made of dead and still living parasites. An untreated group of fish is also included in the evaluation. The test is carried out in triplicate.

The subject of a further data set is fish. In words: Tolerance by fish in long lasting tests on salmon. Format: in vivo.
The next data set concerns sea lice. Particulars: in sea water; cited from earlier work.

With `FC(F)(F)c1ccc(-c2ccc(C3COC(c4c(Cl)cccc4Cl)=N3)cc2)cc1` (centres unmarked) [2-(2,6-Dichlorophenyl)-4-(4′-trifluoromethylbiphenyl-4-yl)-4,5-dihydro-oxazole], in the data set on salmon lice [1], the survival rate is recorded as 0%. In the case of `Fc1cccc(F)c1C1=NC(c2ccc(-c3ccc(C(F)(F)F)cc3)cc2)CO1` (centres unmarked) [2-(2,6-Difluorophenyl)-4-(4′-trifluoromethylbiphenyl-4-yl)-4,5-dihydro-oxazole], in the data set on salmon lice [1], the survival rate was 0%. Also, in the data set on salmon lice [2], the control is 100% and the “duration of 100% control” value was “at least 3 month”. The tolerance by fish result in the data set on fish is given as “well tolerated by fish”. `Fc1cccc(Cl)c1C1=NC(c2ccc(-c3ccc(C(F)(F)F)cc3)cc2)CO1` (centres unmarked) [2-(2-Chloro-6-fluorophenyl)-4-(4′-trifluoromethylbiphenyl-4-yl)-4,5-dihydro-oxazole] registered a survival rate in the data set on salmon lice [1] of 0%.

As to `COP(=O)(OC)OC=C(Cl)Cl` [Dichlorvos, 2,2-dichloroethenyldimethyl phosphate], the “concentration required / effective to combat sea lice” value in the data set with sea lice is listed as no less than 1 ppm. `COP(=O)(OC)C(O)C(Cl)(Cl)Cl` (centres unmarked) [Trichlorfon, dimethyl-2,2,2-trichloro-1-hydroxyethylphosphonate]: in the data set on sea lice, the “concentration required / effective to combat sea lice” value was 300 ppm.

The record behind these values is US8128943B2, “Use of oxazole derivatives for controlling fish parasites” (Novartis AG, priority 2005, dated 2012).
